How the values were obtained:
[1] = system: Human myeloid monocytic leukemia cell (MV-4-11); assay: Tumor cell proliferation inhibition (CellTiter-Meiluncell luminescent cell viability assay); details: MV4-11, 96 h; for inhibition at 0.01 µM: read-out: Inhibition Rate at 10 nM (%); for inhibition at 0.5 µM: read-out: Inhibition Rate at 500 nM (%)
IKZF3 = biological target: T1, IKZF3 (Homo sapiens, UniProt Q96SW2+Q9UKT9); assay: Western blot, degradation of substrate protein in hPBMCs; assay type: cell-based
T1 construct: effects of the compounds of the present disclosure on the expression of target proteins in cells; endogenous in cells; host or cells: human PBMCs (Milecell Biotechnologies)
T1 sequence (Q9UKT9 whole entry): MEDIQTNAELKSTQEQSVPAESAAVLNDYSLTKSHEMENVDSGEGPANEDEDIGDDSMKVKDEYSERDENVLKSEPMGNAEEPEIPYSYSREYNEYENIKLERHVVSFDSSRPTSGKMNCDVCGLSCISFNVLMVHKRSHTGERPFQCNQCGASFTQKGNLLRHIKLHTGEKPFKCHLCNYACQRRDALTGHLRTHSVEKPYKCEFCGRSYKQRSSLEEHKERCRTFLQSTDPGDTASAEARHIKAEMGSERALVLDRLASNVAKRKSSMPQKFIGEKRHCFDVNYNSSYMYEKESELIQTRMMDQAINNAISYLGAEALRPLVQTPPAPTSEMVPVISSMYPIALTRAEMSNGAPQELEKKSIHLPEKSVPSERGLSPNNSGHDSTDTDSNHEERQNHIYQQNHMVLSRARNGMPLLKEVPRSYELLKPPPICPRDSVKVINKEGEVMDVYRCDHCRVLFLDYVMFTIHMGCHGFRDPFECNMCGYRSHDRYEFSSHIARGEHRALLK
T1 sequence (Q96SW2 whole entry): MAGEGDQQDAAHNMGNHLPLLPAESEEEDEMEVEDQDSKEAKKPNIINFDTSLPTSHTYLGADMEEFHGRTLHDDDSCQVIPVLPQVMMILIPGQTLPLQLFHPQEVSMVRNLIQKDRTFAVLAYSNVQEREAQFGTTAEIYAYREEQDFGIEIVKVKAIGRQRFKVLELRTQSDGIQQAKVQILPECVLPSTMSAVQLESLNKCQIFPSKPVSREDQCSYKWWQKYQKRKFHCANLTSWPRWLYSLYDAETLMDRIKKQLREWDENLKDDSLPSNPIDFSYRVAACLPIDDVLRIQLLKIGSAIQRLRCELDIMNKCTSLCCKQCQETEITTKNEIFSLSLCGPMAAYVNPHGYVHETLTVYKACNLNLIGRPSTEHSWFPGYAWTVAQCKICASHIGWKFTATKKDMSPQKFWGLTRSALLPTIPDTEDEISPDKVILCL
T1 sequence (Q16531 whole entry partner): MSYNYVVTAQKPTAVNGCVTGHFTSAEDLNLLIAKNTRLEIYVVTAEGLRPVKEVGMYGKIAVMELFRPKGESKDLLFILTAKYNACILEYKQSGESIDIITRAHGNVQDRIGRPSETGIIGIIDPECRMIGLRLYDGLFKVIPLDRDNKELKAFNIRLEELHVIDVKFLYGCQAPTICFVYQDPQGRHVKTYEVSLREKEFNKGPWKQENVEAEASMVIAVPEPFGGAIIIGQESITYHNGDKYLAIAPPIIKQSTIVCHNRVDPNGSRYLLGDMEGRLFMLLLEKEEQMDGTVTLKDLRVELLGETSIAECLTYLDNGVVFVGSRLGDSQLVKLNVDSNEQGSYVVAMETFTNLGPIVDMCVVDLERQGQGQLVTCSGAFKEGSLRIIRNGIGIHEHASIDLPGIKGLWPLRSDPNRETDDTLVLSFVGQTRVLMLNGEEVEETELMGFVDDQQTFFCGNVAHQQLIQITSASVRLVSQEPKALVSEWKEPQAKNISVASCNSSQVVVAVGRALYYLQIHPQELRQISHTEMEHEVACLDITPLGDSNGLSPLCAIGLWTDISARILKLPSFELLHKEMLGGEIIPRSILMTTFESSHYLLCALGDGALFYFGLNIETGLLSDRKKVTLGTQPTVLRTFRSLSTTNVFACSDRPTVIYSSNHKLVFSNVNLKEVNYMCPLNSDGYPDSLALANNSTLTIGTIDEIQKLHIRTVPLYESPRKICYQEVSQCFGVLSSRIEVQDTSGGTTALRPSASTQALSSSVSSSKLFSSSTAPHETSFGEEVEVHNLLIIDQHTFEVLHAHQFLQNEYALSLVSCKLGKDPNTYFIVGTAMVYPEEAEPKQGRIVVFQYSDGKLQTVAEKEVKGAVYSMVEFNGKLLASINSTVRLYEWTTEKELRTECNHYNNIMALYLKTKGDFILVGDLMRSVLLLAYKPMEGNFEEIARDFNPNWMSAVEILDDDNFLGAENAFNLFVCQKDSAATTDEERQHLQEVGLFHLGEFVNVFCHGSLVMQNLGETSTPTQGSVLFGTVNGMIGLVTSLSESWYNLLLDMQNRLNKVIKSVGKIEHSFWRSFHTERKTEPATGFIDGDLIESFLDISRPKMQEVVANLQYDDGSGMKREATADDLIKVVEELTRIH

IKZF1 = biological target: T2, IKZF1 (Homo sapiens, UniProt Q13422+Q96SW2); assay: as above; assay type: cell-based
T2 construct: effects of the compounds of the present disclosure on the expression of target proteins in cells; endogenous in cells; host or cells: human PBMCs (Milecell Biotechnologies)
T2 sequence (Q13422 whole entry): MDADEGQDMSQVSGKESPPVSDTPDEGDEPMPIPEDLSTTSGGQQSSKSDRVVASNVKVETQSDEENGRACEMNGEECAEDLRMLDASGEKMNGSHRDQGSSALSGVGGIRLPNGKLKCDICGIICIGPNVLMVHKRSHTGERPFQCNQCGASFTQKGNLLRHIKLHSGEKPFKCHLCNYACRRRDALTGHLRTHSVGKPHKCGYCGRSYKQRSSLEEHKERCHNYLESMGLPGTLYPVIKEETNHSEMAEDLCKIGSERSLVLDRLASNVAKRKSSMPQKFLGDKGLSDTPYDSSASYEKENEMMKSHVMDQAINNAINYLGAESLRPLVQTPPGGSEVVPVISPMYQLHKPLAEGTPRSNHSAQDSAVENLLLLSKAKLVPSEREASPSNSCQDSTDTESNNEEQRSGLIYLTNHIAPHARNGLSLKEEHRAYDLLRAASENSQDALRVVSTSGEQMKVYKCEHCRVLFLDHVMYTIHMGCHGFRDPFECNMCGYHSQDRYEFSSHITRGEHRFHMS
T2 sequence (Q96SW2 whole entry): as the sequence (Q96SW2 whole entry) above
T2 sequence (Q16531 whole entry partner): as the sequence (Q16531 whole entry partner) above

WEE1 = biological target: T3, WEE1 (Homo sapiens, UniProt P30291+Q96SW2); assay: as above; assay type: cell-based
T3 construct: effects of the compounds of the present disclosure on the expression of target proteins in cells; endogenous in cells; host or cells: human PBMCs (Milecell Biotechnologies)
T3 sequence (P30291 whole entry): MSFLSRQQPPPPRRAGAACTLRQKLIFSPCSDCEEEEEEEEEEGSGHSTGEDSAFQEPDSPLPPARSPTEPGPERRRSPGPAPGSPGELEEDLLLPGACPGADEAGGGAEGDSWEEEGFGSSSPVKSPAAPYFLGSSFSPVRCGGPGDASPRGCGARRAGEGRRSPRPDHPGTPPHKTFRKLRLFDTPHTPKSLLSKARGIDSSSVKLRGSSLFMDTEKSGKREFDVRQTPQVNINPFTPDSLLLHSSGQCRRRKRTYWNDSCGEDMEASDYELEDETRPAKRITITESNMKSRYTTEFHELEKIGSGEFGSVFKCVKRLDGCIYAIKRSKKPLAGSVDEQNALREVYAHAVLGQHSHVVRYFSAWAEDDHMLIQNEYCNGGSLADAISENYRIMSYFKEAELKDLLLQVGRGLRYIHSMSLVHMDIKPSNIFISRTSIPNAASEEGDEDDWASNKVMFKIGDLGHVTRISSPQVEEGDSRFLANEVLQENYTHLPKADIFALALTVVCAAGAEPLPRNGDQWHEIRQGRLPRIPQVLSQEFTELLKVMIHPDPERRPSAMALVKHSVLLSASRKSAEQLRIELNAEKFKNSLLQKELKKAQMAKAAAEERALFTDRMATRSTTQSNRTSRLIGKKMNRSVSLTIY
T3 sequence (Q96SW2 whole entry): as the sequence (Q96SW2 whole entry) above
T3 sequence (Q16531 whole entry partner): as the sequence (Q16531 whole entry partner) above

IKZF2 = biological target: T4, IKZF2 (Homo sapiens, UniProt Q96SW2+Q9UKS7); assay: as above; assay type: cell-based
T4 construct: effects of the compounds of the present disclosure on the expression of target proteins in cells; endogenous in cells; host or cells: human PBMCs (Milecell Biotechnologies)
T4 sequence (Q9UKS7 whole entry): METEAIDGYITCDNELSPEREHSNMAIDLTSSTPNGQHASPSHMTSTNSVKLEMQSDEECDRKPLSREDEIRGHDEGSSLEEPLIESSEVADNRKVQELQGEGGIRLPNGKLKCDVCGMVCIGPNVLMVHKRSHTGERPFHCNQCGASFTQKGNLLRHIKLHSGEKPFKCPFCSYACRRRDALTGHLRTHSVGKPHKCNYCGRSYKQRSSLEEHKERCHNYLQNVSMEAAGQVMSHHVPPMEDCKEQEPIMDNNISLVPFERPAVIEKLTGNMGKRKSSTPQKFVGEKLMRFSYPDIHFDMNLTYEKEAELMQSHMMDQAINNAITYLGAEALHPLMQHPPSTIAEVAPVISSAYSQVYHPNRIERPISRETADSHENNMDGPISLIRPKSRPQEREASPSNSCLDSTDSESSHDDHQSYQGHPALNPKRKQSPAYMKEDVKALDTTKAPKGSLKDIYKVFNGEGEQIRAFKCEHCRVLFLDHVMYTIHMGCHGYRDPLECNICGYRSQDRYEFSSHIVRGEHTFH
T4 sequence (Q96SW2 whole entry): as the sequence (Q96SW2 whole entry) above
T4 sequence (Q16531 whole entry partner): as the sequence (Q16531 whole entry partner) above

CK1α = biological target: T5, CK1α (Homo sapiens, UniProt P48729+Q96SW2); assay: as above; assay type: cell-based
T5 construct: effects of the compounds of the present disclosure on the expression of target proteins in cells; endogenous in cells; host or cells: human PBMCs (Milecell Biotechnologies)
T5 sequence (P48729 whole entry): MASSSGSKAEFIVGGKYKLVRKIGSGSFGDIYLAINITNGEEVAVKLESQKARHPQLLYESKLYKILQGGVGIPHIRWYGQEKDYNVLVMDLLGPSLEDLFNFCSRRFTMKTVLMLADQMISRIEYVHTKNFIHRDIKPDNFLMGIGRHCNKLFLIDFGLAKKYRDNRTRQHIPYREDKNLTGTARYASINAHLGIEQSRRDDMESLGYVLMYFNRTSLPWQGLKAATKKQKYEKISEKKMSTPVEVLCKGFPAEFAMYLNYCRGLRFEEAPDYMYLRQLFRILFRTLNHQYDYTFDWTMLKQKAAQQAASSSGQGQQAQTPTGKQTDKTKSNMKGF
T5 sequence (Q96SW2 whole entry): as the sequence (Q96SW2 whole entry) above
T5 sequence (Q16531 whole entry partner): as the sequence (Q16531 whole entry partner) above

[2] = biological target: T6, human Cereblon WT GST-tagged protein (Homo sapiens, UniProt Q96SW2); assay: CRBN-binding affinity, HTRF (CEREBLON BINDING kit); details: for inhibition at 0.5 µM: read-out: Inhibition Rate at 0.5 µM (%); for inhibition at 2 µM: read-out: Inhibition Rate at 2 µM (%)
T6 construct: purchased CISBIO 64BDCRBNPEH
T6 sequence (Q96SW2 whole entry): as the sequence (Q96SW2 whole entry) above

[3] = system: Human acute T lymphocytic leukemia cell (Molt4); assay: Tumor cell proliferation inhibition (CellTiter-Meiluncell luminescent cell viability assay); details: MOLT-4, 96 h; for inhibition at 0.01 µM: read-out: Inhibition Rate at 10 nM (%); for inhibition at 0.5 µM: read-out: Inhibition Rate at 500 nM (%)
[4] = system: Human multiple myeloma cell (MM.1S); assay: as above; details: for inhibition at 0.01 µM / inhibition at 0.5 µM: Homo sapiens, MM1.S, 96 h; for inhibition at 0.01 µM: read-out: Inhibition Rate at 10 nM (%); for Inhibition Rate at 500 nM (%): MM.1S, 96 hours; for inhibition at 0.5 µM: read-out: Inhibition Rate at 500 nM (%)
GSPT1 = assay: Western blot, degradation of substrate protein in hPBMCs; assay type: cell-based, Human
[5] = system: Human breast cancer cell (MCF-7); assay: Tumor cell proliferation inhibition (CellTiter-Meiluncell luminescent cell viability assay); details: MCF7, 96 h
[6] = Western blot, 24 hours of compound treatment, compounds tested at 50 nM and 500 nM (concentration for the table not stated)
[7] = 24 hours treatment, compounds at 50 nM and 500 nM (concentration behind the class not stated)

Row | inhibition at 0.5 µM [2] [%] | inhibition at 2 µM [2] [%] | Compound | inhibition at 0.01 µM [1] [%] | inhibition at 0.5 µM [1] [%] | IKZF3 substrate protein remaining % (IKZF3; [6]) | IKZF 1 substrate protein remaining % (IKZF1; [6]) | Wee1 substrate protein remaining % (WEE1; [6]) | IKZF2 substrate protein remaining % (IKZF2; [6]) | CK1α substrate protein remaining % (CK1α; [6]) | inhibition at 0.01 µM [3] [%] | inhibition at 0.5 µM [3] [%] | inhibition at 0.01 µM [4] [%] | GSPT1 substrate protein remaining % (GSPT1; [6]) | inhibition at 0.5 µM [4] [%] | IKZF3 substrate protein remaining % (IKZF3; [7]) | IKZF 1 substrate protein remaining % (IKZF1; [7]) | Wee1 substrate protein remaining % (WEE1; [7]) | IKZF2 substrate protein remaining % (IKZF2; [7]) | CK1α substrate protein remaining % (CK1α; [7]) | GSPT1 substrate protein remaining % (GSPT1; [7]) | also measured
1 | 60 to 80 | 80 to 100 | O=C1CCC(N2Cc3cc(CN4CCC(c5nccc(Cl)c5Cl)CC4)ccc3C2=S)C(=O)N1 (centres unmarked) [GT-08488, 3-(5-((4-(3,4-dichloropyridin-2-yl)piperidin-1-yl)methyl)-1-thioxoisoindolin-2-yl)piperidine-2,6-dione] | 18 to 25 | 80 to 100 | B (80%< substrate protein remaining %≤ 100%) | B (80%< substrate protein remaining %≤ 100%) | B (80%< substrate protein remaining %≤ 100%) | B (80%< substrate protein remaining %≤ 100%) | B (80%< substrate protein remaining %≤ 100%) | 10 to 20 | 70 to 80 | 10 to 20 | A (0% ≤ substrate protein remaining % ≤ 80%) |  |  |  |  |  |  |  | Inhibition Rate at 500 nM (%) [4]: la8
2 | 53 to 60 | 80 to 100 | Cc1ccc(N2CCN(Cc3ccc4c(c3)CN(C3CCC(=O)NC3=O)C4=S)CC2)cc1 (centres unmarked) [GT-08603, 3-(1-thioxo-5-((4-(p-tolyl)piperazin-1-yl)methyl)isoindolin-2-yl)piperidine-2,6-dione] | 40 to 60 | 80 to 100 | B (80%< substrate protein remaining %≤ 100%) | B (80%< substrate protein remaining %≤ 100%) | B (80%< substrate protein remaining %≤ 100%) | B (80%< substrate protein remaining %≤ 100%) | B (80%< substrate protein remaining %≤ 100%) | 0 to 5 | 40 to 50 | 30 to 40 | A (0% ≤ substrate protein remaining % ≤ 80%) | 50 to 60 |  |  |  |  |  |  | 
3 | 30 to 40 | 60 to 80 | O=C1CCC(N2Cc3cc(CN4CCN(c5cc(Cl)ccc5Cl)CC4)ccc3C2=S)C(=O)N1 (centres unmarked) [GT-08611, 3-(5-((4-(2,5-dichlorophenyl)piperazin-1-yl)methyl)-1-thioxoisoindolin-2-yl)piperidine-2,6-dione] | 18 to 25 | 80 to 100 | B (80%< substrate protein remaining %≤ 100%) | B (80%< substrate protein remaining %≤ 100%) | B (80%< substrate protein remaining %≤ 100%) | B (80%< substrate protein remaining %≤ 100%) | B (80%< substrate protein remaining %≤ 100%) | 0 to 5 | 70 to 80 | 20 to 30 | A (0% ≤ substrate protein remaining % ≤ 80%) | 50 to 60 |  |  |  |  |  |  | 
4 | 53 to 60 | 80 to 100 | O=C1CCC(N2Cc3cc(CN4CCC(c5ccccc5)CC4)ccc3C2=S)C(=O)N1 (centres unmarked) [GT-08616, 3-(5-((4-phenylpiperidin-1-yl)methyl)-1-thioxoisoindolin-2-yl)piperidine-2,6-dione] | -5 to 0 | 60 to 80 | B (80%< substrate protein remaining %≤ 100%) | B (80%< substrate protein remaining %≤ 100%) | B (80%< substrate protein remaining %≤ 100%) | B (80%< substrate protein remaining %≤ 100%) | B (80%< substrate protein remaining %≤ 100%) | 10 to 20 | 40 to 50 | 20 to 30 | A (0% ≤ substrate protein remaining % ≤ 80%) | 50 to 60 |  |  |  |  |  |  | 
5 | 40 to 53 | 80 to 100 | O=C1CCC(N2Cc3cc(CN4CCC(c5ccccc5C(F)(F)F)CC4)ccc3C2=S)C(=O)N1 (centres unmarked) [GT-08622, 3-(1-thioxo-5-((4-(2-(trifluoromethyl)phenyl)piperidin-1-yl)methyl)isoindolin-2-yl)piperidine-2,6-dione] | 10 to 18 | 80 to 100 | B (80%< substrate protein remaining %≤ 100%) | B (80%< substrate protein remaining %≤ 100%) | B (80%< substrate protein remaining %≤ 100%) | A (0% ≤ substrate protein remaining % ≤ 80%) | B (80%< substrate protein remaining %≤ 100%) | -5 to 0 | 80 to 100 | 10 to 20 | A (0% ≤ substrate protein remaining % ≤ 80%) | 70 to 80 |  |  |  |  |  |  | 
6 | 40 to 53 | 80 to 100 | Cc1nc(C2CCN(Cc3cccc4c3CN(C3CCC(=O)NC3=O)C4=S)CC2)c2c(-c3ccccc3)csc2n1 (centres unmarked) [GT-08931, 3-(4-((4-(2-methyl-5-phenylthieno[2,3-d]pyrimidin-4-yl)piperidin-1-yl)methyl)-1-thioxoisoindolin-2-yl)piperidine-2,6-dione] |  |  |  |  |  |  |  |  |  |  |  |  |  |  |  |  |  |  | inhibition at 0.01 µM ([5]; read-out: Inhibition Rate at 10 nM (%)): 30 to 40%; inhibition at 0.5 µM ([5]; read-out: Inhibition Rate at 500 nM (%)): 60 to 70%
7 | 60 to 80 | 80 to 100 | O=C1CCC(N2Cc3cc(CN4CCN(c5nccc(Cl)c5Br)CC4)ccc3C2=S)C(=O)N1 (centres unmarked) [GT-09245, 3-(5-((4-(3-bromo-4-chloropyridin-2-yl)piperazin-1-yl)methyl)-1-thioxoisoindolin-2-yl)piperidine-2,6-dione] | 60 to 80 | 80 to 100 |  |  |  |  |  | 10 to 20 | 50 to 60 | 40 to 50 |  | 70 to 80 | B (80%< substrate protein remaining %≤ 100%) | A (0% ≤ substrate protein remaining % ≤ 80%) | B (80%< substrate protein remaining %≤ 100%) | A (0% ≤ substrate protein remaining % ≤ 80%) | B (80%< substrate protein remaining %≤ 100%) | A (0% ≤ substrate protein remaining % ≤ 80%) | 
8 | 53 to 60 | 80 to 100 | O=C1CCC(N2Cc3cc(CN4CCC(c5c[nH]c6ncccc56)CC4)ccc3C2=S)C(=O)N1 (centres unmarked) [GT-09268, 3-(5-((4-(1H-pyrrolo[2,3-b]pyridin-3-yl)piperidin-1-yl)methyl)-1-thioxoisoindolin-2-yl)piperidine-2,6-dione] | 5 to 10 | 60 to 80 |  |  |  |  |  | 40 to 50 | 40 to 50 | 30 to 40 |  |  | B (80%< substrate protein remaining %≤ 100%) | B (80%< substrate protein remaining %≤ 100%) | B (80%< substrate protein remaining %≤ 100%) | B (80%< substrate protein remaining %≤ 100%) | B (80%< substrate protein remaining %≤ 100%) | A (0% ≤ substrate protein remaining % ≤ 80%) | Inhibition Rate at 500 nM (%) [4]: la7

Row | Compound | inhibition at 0.5 µM [2] [%] | inhibition at 2 µM [2] [%] | inhibition at 0.01 µM [1] [%] | inhibition at 0.5 µM [1] [%] | IKZF3 substrate protein remaining % (IKZF3; [6]) | IKZF 1 substrate protein remaining % (IKZF1; [6]) | Wee1 substrate protein remaining % (WEE1; [6]) | IKZF2 substrate protein remaining % (IKZF2; [6]) | CK1α substrate protein remaining % (CK1α; [6]) | inhibition at 0.01 µM [3] [%] | inhibition at 0.5 µM [3] [%] | inhibition at 0.01 µM [4] [%] | GSPT1 substrate protein remaining % (GSPT1; [6]) | inhibition at 0.5 µM [4] [%] | IKZF3 substrate protein remaining % (IKZF3; [7]) | IKZF 1 substrate protein remaining % (IKZF1; [7]) | Wee1 substrate protein remaining % (WEE1; [7]) | IKZF2 substrate protein remaining % (IKZF2; [7]) | CK1α substrate protein remaining % (CK1α; [7]) | GSPT1 substrate protein remaining % (GSPT1; [7]) | also measured
9 | O=C1CCC(N2Cc3cc(CN4CCC(c5n[nH]c6cc(F)ccc56)CC4)ccc3C2=S)C(=O)N1 (centres unmarked) [GT-09269, 3-(5-((4-(6-fluoro-1H-indazol-3-yl)piperidin-1-yl)methyl)-1-thioxoisoindolin-2-yl)piperidine-2,6-dione] | 80 to 100 | 80 to 100 | 10 to 18 | 80 to 100 |  |  |  |  |  | 30 to 40 | 80 to 100 | 5 to 10 |  | 80 to 100 | B (80%< substrate protein remaining %≤ 100%) | B (80%< substrate protein remaining %≤ 100%) | B (80%< substrate protein remaining %≤ 100%) | B (80%< substrate protein remaining %≤ 100%) | B (80%< substrate protein remaining %≤ 100%) | A (0% ≤ substrate protein remaining % ≤ 80%) | 

From EP4745135A1 (Gluetacs Therapeutics (Shanghai) Co., Ltd., priority 2023, dated 2025)
